From patent US12220461B2, “Polypeptide-coupled small molecule compound and antiviral application thereof” (Guangzhou Medical University, priority 2023, dated 2025) come the findings set out here.

The test system of this test is Omicron BA5.2 variant of SARS-CoV-2. The format is cell-based.

The structures appear in SMILES notation. Starred links: 1 amine or outer side, 2 acyl side, 3 side chain; linkers in the order of their positions; H or OH if unused. Non-standard residues stand in square brackets, D forms with d. Residues, ends and D or L forms follow the SMILES beside them. ξ: configuration not given here. *: point of attachment. X1 = Cc1ccc(N[*:1])cc1C(=O)[*:2]; X2 = C[C@@H](N*)c1cccc2ccccc12; ξR = N=C(N)NCCCC(N)C(=O)O; ξL = CC(C)CC(N)C(=O)O; ξS = NC(CO)C(=O)O

For `Cc1ccc(NC(=O)CNC(=O)CNC(=O)C(CCCNC(=N)N)NC(=O)C(CC(C)C)NC(=O)C(CCCNC(=N)N)NC(=O)C(N)CO)cc1C(=O)N[C@H](C)c1cccc2ccccc12` (stereo partly shown) [RG-17] (H-[ξS][ξR][ξL][ξR]GG[X1]-X2), the “IC50 for inhibition of replication of the SARS-CoV-2 genome (qPCR)” value was “lower than GRL0617”.
